Measurements reported in article PMC8188608 (Chemical Science, 2021).
Values after ≈ are worked out from the molar mass of the structure shown.

Legend:
[1] = tested on: E. coli TolC; assay: microbe, parasite or virus in culture; assay type: cell-based; details: for inhibition at 50 µM / MIC: Escherichia coli; for inhibition at 50 µM: read-out: inhib. (%) growth inhibition of E. coli TolC; for MIC: read-out: MIC E. coli TolC
[2] = molecular target: T1, drDXPS (Deinococcus radiodurans, UniProt Q9RUB5); assay: biochemical; details: for inhibition at 120 µM: read-out: inhib. (%) drDXPS, at 120 μM
T1 sequence (Q9RUB5 whole entry): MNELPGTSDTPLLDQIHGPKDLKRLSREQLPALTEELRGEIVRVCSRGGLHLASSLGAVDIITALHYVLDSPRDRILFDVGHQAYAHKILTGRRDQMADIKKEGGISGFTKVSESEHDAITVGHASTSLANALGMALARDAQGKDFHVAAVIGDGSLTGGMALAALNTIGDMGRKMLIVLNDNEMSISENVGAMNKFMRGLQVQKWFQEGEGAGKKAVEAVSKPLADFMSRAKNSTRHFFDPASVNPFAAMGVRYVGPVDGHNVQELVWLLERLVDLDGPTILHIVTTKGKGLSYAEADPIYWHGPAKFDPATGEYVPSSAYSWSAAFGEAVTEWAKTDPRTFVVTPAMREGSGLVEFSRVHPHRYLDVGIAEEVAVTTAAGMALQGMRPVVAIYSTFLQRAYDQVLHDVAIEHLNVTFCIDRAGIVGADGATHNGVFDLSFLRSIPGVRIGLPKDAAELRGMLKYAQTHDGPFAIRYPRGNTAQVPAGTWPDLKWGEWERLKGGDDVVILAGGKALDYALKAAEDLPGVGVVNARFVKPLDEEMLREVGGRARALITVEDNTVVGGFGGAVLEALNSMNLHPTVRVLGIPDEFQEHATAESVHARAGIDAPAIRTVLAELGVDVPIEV

[3] = molecular target: mtDXPS (Mycobacterium tuberculosis, UniProt P9WNS3); assay: biochemical; details: for inhibition at 200 µM / inhibition at 120 µM: read-out: inhib. (%) mtDXPS; for inhib. (%) mtDXPS: at 120 μM (Table 3: concentration only given)
Sequence of mtDXPS (P9WNS3 whole entry): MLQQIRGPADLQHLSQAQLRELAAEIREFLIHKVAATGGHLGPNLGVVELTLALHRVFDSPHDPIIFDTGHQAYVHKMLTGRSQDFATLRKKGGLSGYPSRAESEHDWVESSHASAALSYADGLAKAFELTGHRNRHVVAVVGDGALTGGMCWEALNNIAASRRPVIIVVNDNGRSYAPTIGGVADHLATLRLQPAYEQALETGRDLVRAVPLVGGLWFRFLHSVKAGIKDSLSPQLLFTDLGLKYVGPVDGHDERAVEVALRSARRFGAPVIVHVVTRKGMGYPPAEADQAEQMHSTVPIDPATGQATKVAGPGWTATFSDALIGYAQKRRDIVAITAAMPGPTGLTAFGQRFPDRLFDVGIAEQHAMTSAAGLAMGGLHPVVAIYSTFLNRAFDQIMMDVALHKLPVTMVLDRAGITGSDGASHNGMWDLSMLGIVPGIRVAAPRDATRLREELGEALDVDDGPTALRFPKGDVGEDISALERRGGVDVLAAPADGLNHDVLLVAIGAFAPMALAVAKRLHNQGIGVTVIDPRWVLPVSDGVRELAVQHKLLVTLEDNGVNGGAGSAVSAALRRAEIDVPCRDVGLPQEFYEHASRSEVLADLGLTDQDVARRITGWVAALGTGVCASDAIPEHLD

[4] = molecular target: T1, drDXPS; assay: biochemical; details: for IC50: IC50 drDXPS
[5] = assay type: physicochemical; details: when added at higher concentrations
[6] = tested on: M. tuberculosis H37Rv; assay: microbe, parasite or virus in culture; assay type: cell-based, Mycobacterium tuberculosis; details: for anti-TB activity, head-to-head comparative analysis: 16 μM, 14 compounds tested; for MIC: Mycobacterium tuberculosis, H37RV, read-out: MIC M. tuberculosis
[7] = molecular target: T1, drDXPS; assay type: binding

SMILES	inhibition at 120 µM [2] [%]	inhibition at 120 µM [3] [%]	inhibition at 50 µM [1] [%]	MIC [1] [µM]	other results
O=C(N/N=C/c1ccc(C(F)(F)F)nc1)c1cc2c(s1)CCCC2 [Compound 1, (E)-N'-((6-(Trifluoromethyl)pyridin-3-yl)methylene)-4,5,6,7-tetrahydrobenzo[b]thiophene-2-carbohydrazide]	–	–	–	–	inhib. (%) growth inhibition of E. coli TolC ([1]; at 50 μM): no inhib. and n.i.; IC50 ([2]; IC50 drDXPS): 51 µM; IC50 ([3]; IC50 mtDXPS): 78 µM; mode of inhibition [4]: ThDP- and pyruvate-competitive and non-competitive with respect to D/L-GAP; IC50 ([4]; at 0.3 μM ThDP): 35 ± 10 µM; IC50 ([4]; at 0.1 mM pyruvate): 19 ± 5 µM; IC50 ([4]; at 0.4 mM pyruvate): 86 ± 15 µM; IC50 ([4]; varying D/L-GAP concentrations): ~50 µM; inhibition of drDXPS ([4]; at 5 μM ThDP): 20%; inhibition of drDXPS ([4]; at 0.6 mM pyruvate): 32%
Nc1ncc(/C=N/NC(=O)c2cc3c(s2)CCCC3)cn1 [Compound 3]	15	–	–	–	inhib. (%) growth inhibition of E. coli TolC ([1]; at 50 μM): n.i.
O=C(Cc1c[nH]c2ccccc12)N/N=C/c1ccc(C(F)(F)F)nc1 [Compound 4]	–	–	–	–	inhib. (%) drDXPS ([2]; at 120 μM): n.i.; inhibition at 200 µM [3]: 25%
O=C(COc1ccc(Cl)cc1Cl)N/N=C/c1cc2c(s1)CCCC2 [Compound 6]	–	46	–	–	inhib. (%) growth inhibition of E. coli TolC ([1]; at 25 μM): n.i.^#; IC50 ([2]; IC50 drDXPS): 101 µM
O=C(N/N=C/c1cc2c(s1)CCCC2)c1cccs1 [Compound 7]	37	65	57	–	aggregate formation [5]: did not induce aggregate formation; anti-TB activity, head-to-head comparative analysis [6]: most active; MIC [6]: > 64 µM; inhibition at 200 µM [3]: 65 ± 4%
O=C(COc1ccc(Cl)cc1Cl)N/N=C/c1c[nH]c2ccccc12 [Compound 9]	38	–	–	19 ± 7 (≈ 6.88 µg/mL)	inhibition at 200 µM [3]: 15%
O=C(COc1ccc(Cl)cc1Cl)N/N=C/c1ccc(Br)cn1 [Compound 10]	14	–	21	–	inhibition at 200 µM [3]: 32%
O=C(CCCOc1ccc(Cl)cc1Cl)N/N=C/c1ncc[nH]1 [Compound 12]	33	9	30	–	–
O=C(CCCOc1ccc(Cl)cc1Cl)N/N=C/c1cccs1 [Compound 16]	4	–	28	–	inhib. (%) mtDXPS [3]: n.i.
CCN(CC)c1ccc(/C=N/NC(=O)c2cccs2)c(O)c1 [Compound 21]	6	11	–	70 (≈ 22.2 µg/mL)	–
O=C(CCCOc1ccc(Cl)cc1Cl)N/N=C/c1cccc2[nH]ncc12 [Compound 22]	47	–	–	–	inhib. (%) growth inhibition of E. coli TolC ([1]; at 50 μM): n.i.; inhib. (%) mtDXPS [3]: n.i.
O=C(CCCOc1ccc(Cl)cc1Cl)N/N=C/c1ccc(O)cc1F [Compound 23]	40 to 62	–	–	45 (≈ 17.3 µg/mL)	inhib. (%) mtDXPS [3]: n.i.
COc1cccc(/C=N/NC(=O)CCCOc2ccc(Cl)cc2Cl)c1O [Compound 25]	45	–	–	60 (≈ 23.8 µg/mL)	inhib. (%) mtDXPS [3]: n.i.
O=C(CCCOc1ccc(Cl)cc1Cl)N/N=C/c1ccc2cc[nH]c2c1 [Compound 26]	58	5	–	14 ± 4 (≈ 5.46 µg/mL)	–
O=C(N/N=C/c1ccc2cc[nH]c2c1)c1cc2c(s1)CCCC2 [Compound 35]	62	30	–	16 ± 5 (≈ 5.17 µg/mL)	aggregate formation [5]: did not induce aggregate formation; anti-TB activity, head-to-head comparative analysis [6]: most active; MIC [6]: 64 µM (≈ 20.7 µg/mL)
CC(C)(C)OC(=O)N[C@@H](Cc1ccccc1)C(=O)N/N=C/c1ccc2cc[nH]c2c1 [Compound 37]	40	3	60	–	–
O=C(NCCc1ccc(C(F)(F)F)nc1)c1cc2c(s1)CCCC2 [Compound 38]	25.8	–	19	–	–
O=C(CCCOc1ccc(Cl)cc1Cl)NCCc1ccc(O)cc1F [Compound 39]	37	–	83	–	fold decrease in binding affinity for drDXPS [7]: ~2 fold
FC(F)(F)c1ccc(-c2nnc(-c3cc4c(s3)CCCC4)o2)cn1 [Compound 40]	–	–	–	–	KD drDXPS ([7]; SPR, steady-state fit): n.b.; inhib. (%) growth inhibition of E. coli TolC ([1]; at 50 μM): no inhibition and n.i.
Oc1ccc(-c2nnc(CCCOc3ccc(Cl)cc3Cl)o2)c(F)c1 [Compound 41, 4-(5-(3-(2,4-dichlorophenoxy)propyl)-1,3,4-oxadiazol-2-yl)-3-fluorophenol]	–	–	47	–	inhib. (%) drDXPS ([2]; at 60 μM): 48 ± 3%; IC50 ([2]; estimated IC50 drDXPS, estimated assuming full inhibition at high concentrations): 99 µM
